Laboratory results published in patent EP4663640A1 (Shanghai Institute of Materia Medica, Chinese Academy of …, priority 2023, dated 2024).
Like-named read-outs stand apart in the source and are kept apart here.

Experiments:
Format in all cases: cell-based
hTRPC5 = molecular target: T1, hTRPC5 (Homo sapiens, UniProt Q9UL62); experiment: TRPC5 inhibitory activity assay (FLIPR calcium fluorescence, Englerin A stimulation)
T1 construct: expressed in transfected cells; host or cells: HEK-293
T1 sequence (Q9UL62 1-973): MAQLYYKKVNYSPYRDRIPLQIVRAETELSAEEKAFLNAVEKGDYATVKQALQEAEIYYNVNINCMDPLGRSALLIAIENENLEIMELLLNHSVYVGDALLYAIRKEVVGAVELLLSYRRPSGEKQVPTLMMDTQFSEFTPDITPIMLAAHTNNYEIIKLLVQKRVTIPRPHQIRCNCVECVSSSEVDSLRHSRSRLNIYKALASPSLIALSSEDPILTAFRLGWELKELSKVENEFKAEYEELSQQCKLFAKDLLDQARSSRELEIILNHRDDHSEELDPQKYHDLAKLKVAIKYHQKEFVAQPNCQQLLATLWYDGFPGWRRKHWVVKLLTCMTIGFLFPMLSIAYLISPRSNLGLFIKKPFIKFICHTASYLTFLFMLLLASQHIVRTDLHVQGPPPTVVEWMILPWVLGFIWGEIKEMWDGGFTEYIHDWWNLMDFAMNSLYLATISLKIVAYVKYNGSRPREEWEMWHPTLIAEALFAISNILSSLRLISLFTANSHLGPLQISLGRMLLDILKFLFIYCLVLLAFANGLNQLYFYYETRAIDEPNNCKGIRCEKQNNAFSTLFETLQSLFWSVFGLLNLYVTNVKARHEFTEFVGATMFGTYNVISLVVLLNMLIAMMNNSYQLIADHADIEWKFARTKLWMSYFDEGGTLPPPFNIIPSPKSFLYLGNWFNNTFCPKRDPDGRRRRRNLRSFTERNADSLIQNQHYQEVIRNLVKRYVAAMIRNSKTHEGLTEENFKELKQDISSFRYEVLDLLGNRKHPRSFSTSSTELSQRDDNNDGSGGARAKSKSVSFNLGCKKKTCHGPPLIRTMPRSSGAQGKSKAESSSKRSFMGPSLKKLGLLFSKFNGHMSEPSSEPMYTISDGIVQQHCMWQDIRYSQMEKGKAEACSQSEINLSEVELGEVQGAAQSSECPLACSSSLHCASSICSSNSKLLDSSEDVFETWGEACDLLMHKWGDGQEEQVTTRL
Procedure, shortened: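 HEK-293 cells expressing the human channel, loaded with 4 µM Fluo-4/AM for 60 min at 37 °C, then stimulated with Englerin A (0.3nM final) and read for 600 s.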

hERG channel = molecular target: T2, hERG channel (Homo sapiens, UniProt Q12809); experiment: hERG channel inhibition assay (Qpatch whole-cell recording, CHO cells expressing hERG); conditions: for IC50: Table 3, highest test concentration 40 µM, read-out: inhibitory activity IC50 hERG
T2 construct: expressed in transfected cells; host or cells: CHO
Method: CHO cells expressing hERG protein were cultured in 175cm^2 culture flasks. When the cell density grew to 60-80%, the culture medium was removed, and the cells were washed with 7mL PBS, and then 3mL Detachin was added for digestion. After digestion was complete, 7mL culture medium was added for neutralization, and then centrifuged, the supernatant was aspirated, and 5mL culture medium was added for resuspending to ensure that the cell density was 2-5×10^6/mL.
The single-cell high-impedance sealing and whole-cell pattern formation process were all automatically completed by the Qpatch instrument. After obtaining the whole-cell recording mode, the cell was clamped at -80 mV. […] This voltage stimulus was applied every 15 seconds. After recording for 2 minutes, the extracellular solution was recorded for 2 minutes, and then the drug administration process began. The compound concentration started from the lowest test concentration, and each test concentration was given for 2 minutes. After all concentrations were given continuously, the positive control compound 10 µM Cisapride was given. At least 3 cells (n≥3) were tested for each concentration.
The stock solution of compound was diluted with extracellular solution, 5 µL of 20 mM compound stock solution was added to 2495 µL of extracellular solution, 500 times diluted to 40 µM, and then 3 times serial dilution was performed in the extracellular solution containing 0.2% DMSO to obtain the final concentration to be tested.
(5) Data analysis: The experimental data were analyzed by XLFit software.

hTRPC3 = molecular target: T3, hTRPC3 (Homo sapiens, UniProt Q13507); experiment: TRPC3 inhibitory activity assay (FLIPR calcium fluorescence); conditions: for relative selectivity TRPC3/ TRPC5: ratio of IC50 values
T3 construct: expressed in transfected cells; host or cells: HEK-293
T3 sequence (Q13507 1-921): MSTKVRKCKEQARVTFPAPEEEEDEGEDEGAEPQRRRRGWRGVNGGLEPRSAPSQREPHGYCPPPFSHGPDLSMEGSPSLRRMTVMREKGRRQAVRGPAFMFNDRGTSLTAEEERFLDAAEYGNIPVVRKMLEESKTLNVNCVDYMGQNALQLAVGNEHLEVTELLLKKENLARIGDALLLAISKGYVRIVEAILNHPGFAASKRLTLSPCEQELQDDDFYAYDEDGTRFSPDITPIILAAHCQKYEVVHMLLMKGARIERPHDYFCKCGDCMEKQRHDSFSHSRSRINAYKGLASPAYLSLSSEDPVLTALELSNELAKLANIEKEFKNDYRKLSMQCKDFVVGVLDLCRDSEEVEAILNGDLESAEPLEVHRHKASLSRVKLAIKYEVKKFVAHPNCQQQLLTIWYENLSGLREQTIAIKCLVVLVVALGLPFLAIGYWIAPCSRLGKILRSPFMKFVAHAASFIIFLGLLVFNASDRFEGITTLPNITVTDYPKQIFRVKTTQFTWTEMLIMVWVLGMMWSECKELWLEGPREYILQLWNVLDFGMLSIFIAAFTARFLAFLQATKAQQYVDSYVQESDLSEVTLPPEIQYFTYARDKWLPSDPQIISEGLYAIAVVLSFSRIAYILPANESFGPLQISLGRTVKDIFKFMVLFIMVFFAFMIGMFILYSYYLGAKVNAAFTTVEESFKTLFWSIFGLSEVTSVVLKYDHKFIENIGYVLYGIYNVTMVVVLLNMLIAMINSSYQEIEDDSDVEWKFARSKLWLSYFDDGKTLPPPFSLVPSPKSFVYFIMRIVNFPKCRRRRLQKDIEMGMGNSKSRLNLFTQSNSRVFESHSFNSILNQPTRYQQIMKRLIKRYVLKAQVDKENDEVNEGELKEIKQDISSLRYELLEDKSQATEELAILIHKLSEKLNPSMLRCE
Method: HEK-293 cells expressing hTRPC3, hTRPC4 or hTRPC5 were seeded into black-bottomed 96-well plates coated with poly-lysine (PDL), with 2×10^4 cells per well. After 8 h of culture, the original culture medium was discarded, and 60 µL of Fluo-4/AM dye with a final concentration of 4 µM was added. The plates were incubated at 37 °C for 60 min, and then rinsed five times with calcium flow detection buffer. […] Then, the agonist Englerin A (EA) (MedChemExpress, Shanghai, China, final concentration of 0.3nM) was added, and the fluorescence signal was collected for 600 seconds. The fluorescence signal of the trajectory diagram is represented by F/F0, wherein F is the fluorescence signal at different time points, and F0 is the basic fluorescence signal, that is, the average value of the fluorescence signal at the first 10 time points. […] The area under the curve of the change in fluorescence intensity after adding EA was calculated. IC50 value was calculated using log[Inhibitor] vs. response - Variable slope, taking into account the area under the curve and the log value of the concentration of the compound.

[1] = Table 1, TRPC5 channels, HEK-293 cells expressing hTRPC5, read-out: FLIPR IC50
[2] = Table 3, read-out: inhibitory activity IC50 TRPC5
[3] = Table 3, read-out: inhibitory activity IC50 TRPC3

T2 sequence (Q12809 whole entry): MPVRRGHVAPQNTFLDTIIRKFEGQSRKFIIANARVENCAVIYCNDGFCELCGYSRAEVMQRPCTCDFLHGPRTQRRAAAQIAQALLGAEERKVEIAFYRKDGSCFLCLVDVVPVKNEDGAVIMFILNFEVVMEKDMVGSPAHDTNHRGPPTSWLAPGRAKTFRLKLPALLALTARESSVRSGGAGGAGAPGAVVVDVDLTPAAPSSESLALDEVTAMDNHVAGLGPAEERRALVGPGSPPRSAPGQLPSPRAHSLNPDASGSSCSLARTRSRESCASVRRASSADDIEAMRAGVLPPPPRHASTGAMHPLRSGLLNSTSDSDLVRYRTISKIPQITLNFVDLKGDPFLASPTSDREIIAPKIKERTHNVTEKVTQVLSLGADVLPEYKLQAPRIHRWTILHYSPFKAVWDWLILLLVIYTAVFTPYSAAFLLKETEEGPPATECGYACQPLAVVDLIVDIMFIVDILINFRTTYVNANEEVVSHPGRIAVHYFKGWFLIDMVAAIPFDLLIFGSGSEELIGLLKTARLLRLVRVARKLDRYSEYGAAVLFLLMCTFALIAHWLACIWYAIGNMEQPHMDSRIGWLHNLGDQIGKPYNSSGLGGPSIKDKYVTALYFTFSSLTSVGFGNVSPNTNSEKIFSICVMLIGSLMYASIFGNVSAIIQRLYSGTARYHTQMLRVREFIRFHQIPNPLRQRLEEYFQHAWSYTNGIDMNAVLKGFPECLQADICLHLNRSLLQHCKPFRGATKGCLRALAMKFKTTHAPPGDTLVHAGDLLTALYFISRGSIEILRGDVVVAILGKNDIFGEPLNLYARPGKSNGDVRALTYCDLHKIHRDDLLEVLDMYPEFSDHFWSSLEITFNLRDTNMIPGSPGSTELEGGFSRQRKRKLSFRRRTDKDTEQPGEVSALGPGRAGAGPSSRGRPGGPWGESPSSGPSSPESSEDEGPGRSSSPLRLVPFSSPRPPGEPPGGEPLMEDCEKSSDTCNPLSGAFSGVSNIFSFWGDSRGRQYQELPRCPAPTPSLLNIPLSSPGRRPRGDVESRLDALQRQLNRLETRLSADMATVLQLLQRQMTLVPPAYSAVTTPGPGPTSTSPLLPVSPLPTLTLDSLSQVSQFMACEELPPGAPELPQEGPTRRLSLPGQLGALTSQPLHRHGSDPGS

SMILES | IC50 (hTRPC5; [1]) | IC50 (hTRPC5; [2]) | IC50 (hERG channel) | IC50 (hTRPC5) | IC50 (hTRPC3) | relative selectivity TRPC3/ TRPC5 (hTRPC3) | selectivity ratio (hERG channel; ratio of IC50 values, read-out: relative selectivity hERG/ TRPC5) | IC50 (hTRPC3; [3])
Cn1c(=O)n(CCCO)c(=O)c2c1nc(C1(F)CCC(F)(F)CC1)n2Cc1ccc(F)c(Cl)c1 [Example E68, 7-(3-chloro-4-fluorobenzyl)-1-(3-hydroxypropyl)-3-methyl-8-(1,4,4-trifluorocyclohexyl)-3,7-dihydro-1H-purine-2,6-dione] | 0.58 nM | 0.58 nM | > 40000 nM | – | – | – | – | –
Cn1c(=O)n(CCCO)c(=O)c2c1nc(C1(F)CCC(C(F)(F)F)CC1)n2Cc1ccc(F)c(F)c1 (stereo not drawn) [Example E52] | – | – | > 40000 nM | 1.3 nM | 2530 nM | 1946 | > 30800 | –
Cn1c(=O)n(CCCO)c(=O)c2c1nc(C1(F)CCC(C(F)(F)F)CC1)n2Cc1ccc(Cl)cc1 (stereo not drawn) [Example E21, 7-(4-chlorobenzyl)-8-(1-fluoro-4-(trifluoromethyl)cyclohexyl)-1-(3-hydroxypropyl)-3-methyl-3,7-dihydro-1H-purine-2,6-dione] | 5.1 nM | 5.1 nM | > 40000 nM | – | – | 555 | – | 2830 nM
COC1CCC(F)(c2nc3c(c(=O)n(CCCO)c(=O)n3C)n2Cc2ccc(Cl)cc2)CC1 (stereo not drawn) [Example E32, 7-(4-chlorobenzyl)-8-(1-fluoro-4-methoxycyclohexyl)-1-(3-hydroxypropyl)-3-methyl-3,7-dihydro-1H-purine-2,6-dione] | 10.2 nM | 10.2 nM | 7520 nM | – | – | > 980 | – | > 10000 nM
